As a reminder, the IC50 is the concentration that gives 50% inhibition.

Chain of human full-length MKNK1 (Q9BUB5 other isoform, or with tags, fused parts or gaps T344D): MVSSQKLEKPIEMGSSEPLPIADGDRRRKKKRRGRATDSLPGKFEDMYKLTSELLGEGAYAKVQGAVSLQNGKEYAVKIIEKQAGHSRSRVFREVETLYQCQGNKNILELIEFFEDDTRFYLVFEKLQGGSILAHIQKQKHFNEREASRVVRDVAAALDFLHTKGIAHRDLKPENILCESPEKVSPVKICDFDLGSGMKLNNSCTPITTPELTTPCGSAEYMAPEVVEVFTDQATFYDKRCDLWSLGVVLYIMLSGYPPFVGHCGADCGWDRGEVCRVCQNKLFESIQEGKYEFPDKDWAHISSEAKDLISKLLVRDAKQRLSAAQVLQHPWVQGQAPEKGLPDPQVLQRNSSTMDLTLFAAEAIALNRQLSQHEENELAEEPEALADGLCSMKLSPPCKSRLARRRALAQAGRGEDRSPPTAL

This experiment has as its target human full-length MKNK1 (Homo sapiens (Human), UniProt Q9BUB5, T344D). Kind of experiment: MKNK1 kinase high ATP assay (TR-FRET). The format is biochemical. Conditions: high ATP (2 mM), 15 min preincubation with enzyme; read-out: MKNK1 IC50. An outline of the steps: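 GST-tagged full-length MKNK1 (aa 1–424, T344D; insect-cell expressed) preincubated 15 min with compound, then reacted 30 min at 22 °C with 2 mM ATP and 0.06 μM biotinylated peptide (final) in HEPES pH 7.5 buffer. Phosphopeptide detected by TR-FRET 665/620 ratio, normalized to no-inhibitor and no-enzyme controls.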
On to `COc1cn2nccc2cc1Nc1ncnc2sc3c(c12)CC[C@H](C(=O)NCC(F)F)C3` [Example 79, (7S)—N-(2,2-Difluoroethyl)-4-[(6-methoxypyrazolo[1,5-a]pyridin-5-yl)amino]-5,6,7,8-tetrahydro[1]benzothieno[2,3-d]pyrimidine-7-carboxamide], for which the IC50 turned out to be 3 nM.

As for `CN(C)C(=O)C1CCc2c(sc3ncnc(Nc4ccn5nccc5c4)c23)C1` (racemic) [Example 1, (RS) N,N-Dimethyl-4-(pyrazolo[1,5-a]pyridin-5-ylamino)-5,6,7,8-tetrahydro[1]benzothieno[2,3-d]pyrimidine-7-carboxamide], the IC50 was determined as 64 nM.

Consider `CN(C)C(=O)[C@H]1CCc2c(sc3ncnc(Nc4ccn5nccc5c4)c23)C1` [Example 17, (7S)—N,N-Dimethyl-4-(pyrazolo[1,5-a]pyridin-5-ylamino)-5,6,7,8-tetrahydro[1]benzothieno[2,3-d]pyrimidine-7-carboxamide], for which the IC50 worked out at 33 nM.

Turning to `COCCN(CCOC)C(=O)[C@H]1CCc2c(sc3ncnc(Nc4cc5ccnn5cc4OC)c23)C1` [Example 119, (7S)—N,N-Bis(2-methoxyethyl)-4-[(6-methoxypyrazolo[1,5-a]pyridin-5-yl)amino]-5,6,7,8-tetrahydro[1]benzothieno[2,3-d]pyrimidine-7-carboxamide], the IC50 is below 1 nM. The same measure for `CCCCN(C)C(=O)[C@H]1CCc2c(sc3ncnc(Nc4cc5ccnn5cc4OC)c23)C1` [Example 97, (7S)—N-Butyl-4-[(6-methoxypyrazolo[1,5-a]pyridin-5-yl)amino]-N-methyl-5,6,7,8-tetrahydro[1]benzothieno[2,3-d]pyrimidine-7-carboxamide]: 1 nM. Consider `COc1cn2nccc2cc1Nc1ncnc2sc3c(c12)CC[C@H](C(=O)Nc1ccc(F)c(Cl)c1)C3` [Example 91, (7S)—N-(3-Chloro-4-fluorophenyl)-4-[(6-methoxypyrazolo[1,5-a]pyridin-5-yl)amino]-5,6,7,8-tetrahydro[1]benzothieno[2,3-d]pyrimidine-7-carboxamide], for which the IC50 was found to be 48 nM. The same measure for `CN1C[C@@H]2C[C@H]1CN2C(=O)[C@H]1CCc2c(sc3ncnc(Nc4cc5ccnn5cc4Cl)c23)C1` [Example 72, (7S)-4-[(6-Chloropyrazolo[1,5-a]pyridin-5-yl)amino]-5,6,7,8-tetrahydro[1]benzothieno[2,3-d]pyrimidin-7-yl[(1S,4S)-5-methyl-2,5-diazabicyclo[2.2.1]hept-2-yl]methanone]: 14 nM; for `O=C([C@H]1CCc2c(sc3ncnc(Nc4ccn5nccc5c4)c23)C1)N1CC(F)(F)C1` [Example 23, (3,3-Difluoroazetidin-1-yl)[(7S)-4-(pyrazolo[1,5-a]pyridin-5-ylamino)-5,6,7,8-tetrahydro[1]benzothieno[2,3-d]pyrimidin-7-yl]methanone]: 23 nM. `O=C(NCCC(F)(F)F)[C@H]1CCc2c(sc3ncnc(Nc4cc5ccnn5cc4Cl)c23)C1` [Example 43, (7S)-4-[(6-Chloropyrazolo[1,5-a]pyridin-5-yl)amino]-N-(3,3,3-trifluoropropyl)-5,6,7,8-tetrahydro[1]benzothieno[2,3-d]pyrimidine-7-carboxamide]: the IC50 came to 35 nM. On to `O=C([C@H]1CCc2c(sc3ncnc(Nc4ccn5nccc5c4)c23)C1)N1CC2CC2C1` (stereo partly drawn) [Example 12, 3-Azabicyclo[3.1.0]hex-3-yl[(7S)-4-(pyrazolo[1,5-a]pyridin-5-ylamino)-5,6,7,8-tetrahydro[1]benzothieno[2,3-d]pyrimidin-7-yl]methanone], for which the IC50 is 24 nM. As for `COc1cn2nccc2cc1Nc1ncnc2sc3c(c12)CC[C@H](C(=O)N1C[C@H]2C[C@@H]1CN2C)C3` [Example 122, (7S)-4-[(6-Methoxypyrazolo[1,5-a]pyridin-5-yl)amino]-5,6,7,8-tetrahydro[1]benzothieno[2,3-d]pyrimidin-7-yl[(1R,4R)-5-methyl-2,5-diazabicyclo[2.2.1]hept-2-yl]methanone], the half-maximal inhibitory concentration (IC50) is below 1 nM. The same measure for `COc1cn2nccc2cc1Nc1ncnc2sc3c(c12)CC[C@H](C(=O)Nc1ccc(F)cc1)C3` [Example 88, (7S)—N-(4-Fluorophenyl)-4-[(6-methoxypyrazolo[1,5-a]pyridin-5-yl)amino]-5,6,7,8-tetrahydro[1]benzothieno[2,3-d]pyrimidine-7-carboxamide]: 8 nM.

For the compound `CCN(CCN(C)C)C(=O)[C@H]1CCc2c(sc3ncnc(Nc4cc5ccnn5cc4OC)c23)C1` [Example 115, (7S)—N-[2-(Dimethylamino)ethyl]-N-ethyl-4-[(6-methoxypyrazolo[1,5-a]pyridin-5-yl)amino]-5,6,7,8-tetrahydro[1]benzothieno[2,3-d]pyrimidine-7-carboxamide], the IC50 is 1 nM. As for `COc1cn2nccc2cc1Nc1ncnc2sc3c(c12)CC[C@H](C(=O)N(C)CCCN(C)C)C3` [Example 99, (7S)—N-[3-(Dimethylamino)propyl]-4-[(6-methoxypyrazolo[1,5-a]pyridin-5-yl)amino]-N-methyl-5,6,7,8-tetrahydro[1]benzothieno[2,3-d]pyrimidine-7-carboxamide], the IC50 was 1 nM.

For the compound `O=C([C@H]1CCc2c(sc3ncnc(Nc4ccn5nccc5c4)c23)C1)N1CCC1` [Example 20, Azetidin-1-yl[(7S)-4-(pyrazolo[1,5-a]pyridin-5-ylamino)-5,6,7,8-tetrahydro[1]benzothieno[2,3-d]pyrimidin-7-yl]methanone], the IC50 was found to be 26 nM. The same measure for `C[C@@H]1COC[C@@H](C)N1C(=O)[C@H]1CCc2c(sc3ncnc(Nc4ccn5nccc5c4)c23)C1` [Example 14, [(3R,5R)-3,5-Dimethylmorpholin-4-yl][(7S)-4-(pyrazolo[1,5-a]pyridin-5-ylamino)-5,6,7,8-tetrahydro[1]benzothieno[2,3-d]pyrimidin-7-yl]methanone]: 7 nM. Turning to `COc1cn2nccc2cc1Nc1ncnc2sc3c(c12)CC[C@H](C(=O)Nc1ccc2[nH]ccc2c1)C3` [Example 93, (7S)—N-(1H-Indol-5-yl)-4-[(6-methoxypyrazolo[1,5-a]pyridin-5-yl)amino]-5,6,7,8-tetrahydro[1]benzothieno[2,3-d]pyrimidine-7-carboxamide], the IC50 was 3 nM. For the compound `COc1cn2nccc2cc1Nc1ncnc2sc3c(c12)CC[C@H](C(=O)N(C)CCN(C)C)C3` [Example 101, (7S)—N-[2-(Dimethylamino)ethyl]-4-[(6-methoxypyrazolo[1,5-a]pyridin-5-yl)amino]-N-methyl-5,6,7,8-tetrahydro[1]benzothieno[2,3-d]pyrimidine-7-carboxamide], the half-maximal inhibitory concentration (IC50) came out at 2 nM. Consider `COCCN(CCOC)C(=O)[C@H]1CCc2c(sc3ncnc(Nc4cc5ccnn5cc4Cl)c23)C1` [Example 71, (7S)-4-[(6-Chloropyrazolo[1,5-a]pyridin-5-yl)amino]-N,N-bis(2-methoxyethyl)-5,6,7,8-tetrahydro[1]benzothieno[2,3-d]pyrimidine-7-carboxamide], for which the IC50 came out at 12 nM. Turning to `CCN(C)C(=O)[C@H]1CCc2c(sc3ncnc(Nc4cc5ccnn5cc4OC)c23)C1` [Example 94, (7S)—N-Ethyl-4-[(6-methoxypyrazolo[1,5-a]pyridin-5-yl)amino]-N-methyl-5,6,7,8-tetrahydro[1]benzothieno[2,3-d]pyrimidine-7-carboxamide], the IC50 turned out to be 1 nM. With `COc1cn2nccc2cc1Nc1ncnc2sc3c(c12)CC[C@H](C(=O)Nc1ccc(Cl)c(Cl)c1)C3` [Example 90, (7S)—N-(3,4-Dichlorophenyl)-4-[(6-methoxypyrazolo[1,5-a]pyridin-5-yl)amino]-5,6,7,8-tetrahydro[1]benzothieno[2,3-d]pyrimidine-7-carboxamide], the IC50 came out at 235 nM. As to `CN(C)[C@@H]1CCN(C(=O)[C@H]2CCc3c(sc4ncnc(Nc5cc6ccnn6cc5Cl)c34)C2)C1` [Example 58, (7S)-4-[(6-Chloropyrazolo[1,5-a]pyridin-5-yl)amino]-5,6,7,8-tetrahydro[1]benzothieno[2,3-d]pyrimidin-7-yl[(3R)-3-(dimethylamino)pyrrolidin-1-yl]methanone], the IC50 is 2 nM. As for `CN(C)CCCN(CCO)C(=O)[C@H]1CCc2c(sc3ncnc(Nc4cc5ccnn5cc4Cl)c23)C1` [Example 63, (7S)4-[(6-Chloropyrazolo[1,5-a]pyridin-5-yl)amino]-N-[3-(dimethylamino)propyl]-N-(2-hydroxyethyl)-5,6,7,8-tetrahydro[1]benzothieno[2,3-d]pyrimidine-7-carboxamide], the IC50 was determined as 15 nM.

`O=C([C@H]1CCc2c(sc3ncnc(Nc4ccn5nccc5c4)c23)C1)N1CC2(COC2)C1` [Example 35, 2-Oxa-6-azaspiro[3.3]hept-6-yl[(7S)-4-(pyrazolo[1,5-a]pyridin-5-ylamino)-5,6,7,8-tetrahydro[1]benzothieno[2,3-d]pyrimidin-7-yl]methanone]: the IC50 worked out at 75 nM. `CCN(CCO)C(=O)[C@H]1CCc2c(sc3ncnc(Nc4cc5ccnn5cc4OC)c23)C1` [Example 117, (7S)—N-Ethyl-N-(2-hydroxyethyl)-4-[(6-methoxypyrazolo[1,5-a]pyridin-5-yl)amino]-5,6,7,8-tetrahydro[1]benzothieno[2,3-d]pyrimidine-7-carboxamide]: the IC50 came to 1 nM. In the case of `CN1CCN(C(=O)[C@H]2CCc3c(sc4ncnc(Nc5ccn6nccc6c5)c34)C2)CC1` [Example 29, (4-Methylpiperazin-1-yl)[(7S)-4-(pyrazolo[1,5-a]pyridin-5-ylamino)-5,6,7,8-tetrahydro[1]benzothieno[2,3-d]pyrimidin-7-yl]methanone], the IC50 came out at 20 nM.

The values above are taken from patent publication US10487092B2, “Pyrazolopyridinamines as MKNK1 and MKNK2 inhibitors” (BAYER PHARMA AKTIENGESELLSCHAFT, priority 2014, dated 2019).
